One experiment deals with OCI-Ly7. The experiment in a line: OCI Ly7 cell line Proliferation assay. The format is functional, Homo sapiens. As to conditions: Compound concentration 10 uM; time 3 day.
The subject of a further experiment is BJAB. The experiment in a line: BJAB cell line Proliferation assay. The format is functional, Homo sapiens. As to conditions: Compound concentration 10 uM; time 3 day.
The subject of another experiment is SK-MEL-2. The experiment in a line: SKMEL2 cell line Proliferation assay. The format is functional, Homo sapiens. As to conditions: Compound concentration 10 uM; time 5 day.
Another experiment has as its system THP-1. The experiment in a line: THP-1 cell line Proliferation assay. The format is functional, Homo sapiens. As to conditions: Compound concentration 10 uM; time 3 day.
For another experiment, the system named is NCI-H209. Briefly: H209 cell line Proliferation assay. The format is functional, Homo sapiens. As to conditions: Compound concentration 10 uM; time 4 day.
The subject of a further experiment is MDA-MB-231. Briefly: MDA_MB_231 cell line Proliferation assay. As to conditions: Compound concentration 10 uM; time 5 day. In kind it is functional, Homo sapiens.
The next experiment concerns MeWo. The experiment in a line: MeWo cell line Proliferation assay. The note with it: Compound concentration 10 uM; time 5 day. The format is functional, Homo sapiens.
Experiment [1] addresses Calcitonin-gene-related peptide receptor, CALCRL/RAMP1 (Homo sapiens) (UniProt O60894+Q16602). The experiment in a line: CGRP (h) CEREP ligand profiling. As to conditions: filed as agonist, Compound concentration 10.0 uM. The format is protein-complex assay.
In a further experiment the test system is HCC1187. The experiment in a line: HCC1187 cell line Proliferation assay. The format is functional, Homo sapiens. The note with it: Compound concentration 10 uM; time 5 day.
Experiment [2] concerns the target B2 bradykinin receptor (Homo sapiens) (UniProt P30411). Briefly: B2 (h) CEREP ligand profiling. The note with it: filed as agonist, Compound concentration 10.0 uM.
The next experiment relates to NCI-H146. Briefly: H146 cell line Proliferation assay. The format is functional, Homo sapiens. The note with it: Compound concentration 10 uM; time 4 day.
Experiment [3] deals with 5-hydroxytryptamine receptor 7 (Homo sapiens) (UniProt P34969). As to conditions: Compound concentration 10.0 uM.
5-hydroxytryptamine receptor 7 (Homo sapiens), sequence (P34969 whole entry): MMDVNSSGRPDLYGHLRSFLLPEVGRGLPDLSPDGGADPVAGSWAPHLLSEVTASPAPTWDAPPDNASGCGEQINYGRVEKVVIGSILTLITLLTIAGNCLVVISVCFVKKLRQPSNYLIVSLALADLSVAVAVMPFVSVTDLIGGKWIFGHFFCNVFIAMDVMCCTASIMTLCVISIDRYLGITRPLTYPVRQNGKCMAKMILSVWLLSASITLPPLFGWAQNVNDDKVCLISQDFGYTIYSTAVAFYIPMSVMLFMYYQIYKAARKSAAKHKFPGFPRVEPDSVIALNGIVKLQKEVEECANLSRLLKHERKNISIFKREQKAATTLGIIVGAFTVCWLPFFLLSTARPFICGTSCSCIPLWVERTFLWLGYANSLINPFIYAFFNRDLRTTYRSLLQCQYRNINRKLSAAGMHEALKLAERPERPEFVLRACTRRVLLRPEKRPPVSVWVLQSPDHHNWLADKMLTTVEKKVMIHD
For a further experiment, the system named is U-2973. The experiment in a line: U2973 cell line Proliferation assay. The format is functional, Homo sapiens. As to conditions: Compound concentration 10 uM; time 3 day.
The test system of the next experiment is Toledo. Briefly: Toledo cell line Proliferation assay. The format is functional, Homo sapiens. The note with it: Compound concentration 10 uM; time 3 day.
A further experiment has as its system HCC1599. The experiment in a line: HCC1599 cell line Proliferation assay. In kind it is functional, Homo sapiens. As to conditions: Compound concentration 10 uM; time 5 day.
Experiment [4] addresses Adenosine receptor A1 (Homo sapiens) (UniProt P30542). Briefly: A1 (h) CEREP ligand profiling. The note with it: filed as antagonist, Compound concentration 10.0 uM.
In experiment [5] the target is Beta-2 adrenergic receptor (Homo sapiens) (UniProt P07550). Briefly: beta 2 (h) CEREP ligand profiling. The note with it: filed as agonist, Compound concentration 10.0 uM.
A further experiment deals with U-2940. Briefly: U2940 cell line Proliferation assay. In kind it is functional, Homo sapiens. The note with it: Compound concentration 10 uM; time 3 day.
For a further experiment, the system named is MOLM-13. The experiment in a line: MOLM-13 cell line Proliferation assay. The format is functional, Homo sapiens. As to conditions: Compound concentration 10 uM; time 3 day.
Experiment [6] has as its target Histone acetyltransferase KAT2B (Homo sapiens) (UniProt Q92831). The experiment in a line: PCAF (HAT) CEREP ligand profiling. The note with it: Compound concentration 10.0 uM.
Another experiment relates to NCI-H929. The experiment in a line: H929 cell line Proliferation assay. In kind it is functional, Homo sapiens. As to conditions: Compound concentration 10 uM; time 3 day.
Another experiment has as its system Malme-3M. The experiment in a line: Malme3M cell line Proliferation assay. In kind it is functional, Homo sapiens. The note with it: Compound concentration 10 uM; time 5 day.
The test system of the next experiment is NCI-H522. The experiment in a line: H522 cell line Proliferation assay. The format is functional, Homo sapiens. As to conditions: Compound concentration 10 uM; time 3 day.
For a further experiment, the system named is NCI-H838. Briefly: H838 cell line Proliferation assay. In kind it is functional, Homo sapiens. As to conditions: Compound concentration 10 uM; time 3 day.
The next experiment deals with OPM-2. Briefly: OPM-2 cell line Proliferation assay. The format is functional, Homo sapiens. The note with it: Compound concentration 10 uM; time 3 day.
The next experiment has as its system SU-DHL-2. Briefly: SuDHL2 cell line Proliferation assay. The format is functional, Homo sapiens. The note with it: Compound concentration 10 uM; time 3 day.
For the next experiment, the system named is NCI-H1417. The experiment in a line: H1417 cell line Proliferation assay. The format is functional, Homo sapiens. The note with it: Compound concentration 10 uM; time 4 day.
The test system of the next experiment is HL-60. The experiment in a line: HL-60 cell line Proliferation assay. In kind it is functional, Homo sapiens. As to conditions: Compound concentration 10 uM; time 3 day.
Another experiment deals with SU-DHL10. The experiment in a line: SuDHL10 cell line Proliferation assay. The note with it: Compound concentration 10 uM; time 3 day. The format is functional, Homo sapiens.
A further experiment deals with SU-DHL-6. The experiment in a line: SuDHL6 cell line Proliferation assay. In kind it is functional, Homo sapiens. As to conditions: Compound concentration 10 uM; time 3 day.
Another experiment relates to RPMI-8226. Briefly: RPMI-8226 cell line Proliferation assay. In kind it is functional, Homo sapiens. As to conditions: Compound concentration 10 uM; time 3 day.
Another experiment deals with HCC1395. The experiment in a line: HCC1395 cell line Proliferation assay. The format is functional, Homo sapiens. As to conditions: Compound concentration 10 uM; time 5 day.
The next experiment has as its system COLO-679. Briefly: Colo679 cell line Proliferation assay. In kind it is functional, Homo sapiens. The note with it: Compound concentration 10 uM; time 5 day.
The subject of another experiment is KARPAS-422. Briefly: Karpas422 cell line Proliferation assay. The format is functional, Homo sapiens. As to conditions: Compound concentration 10 uM; time 3 day.
The subject of another experiment is HCC1937. The experiment in a line: HCC1937 cell line Proliferation assay. The format is functional, Homo sapiens. As to conditions: Compound concentration 10 uM; time 5 day.
Another experiment relates to NCI-H23. Briefly: H23 cell line Proliferation assay. In kind it is functional, Homo sapiens. As to conditions: Compound concentration 10 uM; time 3 day.
Experiment [7] deals with T1, 5-hydroxytryptamine receptor 1A (Homo sapiens) (UniProt P08908).
T1 sequence (whole entry): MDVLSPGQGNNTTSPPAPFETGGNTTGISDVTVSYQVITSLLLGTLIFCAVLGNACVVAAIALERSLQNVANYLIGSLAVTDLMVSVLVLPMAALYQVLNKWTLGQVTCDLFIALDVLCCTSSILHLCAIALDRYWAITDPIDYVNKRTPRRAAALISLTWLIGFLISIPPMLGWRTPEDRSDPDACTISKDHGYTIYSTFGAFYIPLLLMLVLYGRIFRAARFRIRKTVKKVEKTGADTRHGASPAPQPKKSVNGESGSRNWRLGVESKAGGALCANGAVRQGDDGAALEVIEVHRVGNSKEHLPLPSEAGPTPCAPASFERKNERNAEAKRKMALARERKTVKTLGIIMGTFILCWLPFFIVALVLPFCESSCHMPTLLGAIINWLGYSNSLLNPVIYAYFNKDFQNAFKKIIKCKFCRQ
The experiment in a line: 5-HT1A (h) CEREP ligand profiling. The note with it: filed as agonist, Compound concentration 10.0 uM.

The target in experiment [8] is Activin receptor type-2A (Homo sapiens) (UniProt P27037). As to conditions: Compound concentration 1000.0 nM.
Experiment [9] has as its target Protein kinase C iota type (Homo sapiens) (UniProt P41743). As to conditions: Compound concentration 1000.0 nM.
The target in experiment [10] is Mitogen-activated protein kinase 11 (Homo sapiens) (UniProt Q15759). As to conditions: Compound concentration 1000.0 nM.
Mitogen-activated protein kinase 11 (Homo sapiens), sequence (Q15759 whole entry): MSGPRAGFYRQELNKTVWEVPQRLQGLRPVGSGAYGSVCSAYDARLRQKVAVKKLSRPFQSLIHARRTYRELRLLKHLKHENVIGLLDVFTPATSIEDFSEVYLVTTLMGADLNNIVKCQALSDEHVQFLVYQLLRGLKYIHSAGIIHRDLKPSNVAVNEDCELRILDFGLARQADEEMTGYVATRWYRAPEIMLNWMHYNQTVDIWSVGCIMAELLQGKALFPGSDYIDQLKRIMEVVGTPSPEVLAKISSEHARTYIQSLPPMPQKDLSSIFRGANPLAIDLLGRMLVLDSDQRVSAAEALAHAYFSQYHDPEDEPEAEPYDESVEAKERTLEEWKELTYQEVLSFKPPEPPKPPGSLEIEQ
Experiment [11] concerns the target T2, Alpha-1A adrenergic receptor (Homo sapiens) (UniProt P35348).
T2 sequence (whole entry): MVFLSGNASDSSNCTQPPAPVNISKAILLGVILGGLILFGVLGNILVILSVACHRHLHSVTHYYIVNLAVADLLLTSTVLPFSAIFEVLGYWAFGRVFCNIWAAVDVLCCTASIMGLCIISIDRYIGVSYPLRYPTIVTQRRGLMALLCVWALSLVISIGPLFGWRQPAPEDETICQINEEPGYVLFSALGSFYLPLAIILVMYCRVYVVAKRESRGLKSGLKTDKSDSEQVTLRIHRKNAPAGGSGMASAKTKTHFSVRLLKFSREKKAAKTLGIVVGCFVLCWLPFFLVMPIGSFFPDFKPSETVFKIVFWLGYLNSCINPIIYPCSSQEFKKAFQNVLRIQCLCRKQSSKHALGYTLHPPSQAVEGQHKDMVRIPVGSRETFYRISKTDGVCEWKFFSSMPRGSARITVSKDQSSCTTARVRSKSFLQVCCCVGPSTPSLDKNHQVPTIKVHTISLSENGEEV
As to conditions: Compound concentration 10.0 uM.

The target of experiment [12] is Ephrin type-A receptor 8 (Homo sapiens) (UniProt P29322). The note with it: Compound concentration 1000.0 nM.
Ephrin type-A receptor 8 (Homo sapiens), sequence (P29322 whole entry): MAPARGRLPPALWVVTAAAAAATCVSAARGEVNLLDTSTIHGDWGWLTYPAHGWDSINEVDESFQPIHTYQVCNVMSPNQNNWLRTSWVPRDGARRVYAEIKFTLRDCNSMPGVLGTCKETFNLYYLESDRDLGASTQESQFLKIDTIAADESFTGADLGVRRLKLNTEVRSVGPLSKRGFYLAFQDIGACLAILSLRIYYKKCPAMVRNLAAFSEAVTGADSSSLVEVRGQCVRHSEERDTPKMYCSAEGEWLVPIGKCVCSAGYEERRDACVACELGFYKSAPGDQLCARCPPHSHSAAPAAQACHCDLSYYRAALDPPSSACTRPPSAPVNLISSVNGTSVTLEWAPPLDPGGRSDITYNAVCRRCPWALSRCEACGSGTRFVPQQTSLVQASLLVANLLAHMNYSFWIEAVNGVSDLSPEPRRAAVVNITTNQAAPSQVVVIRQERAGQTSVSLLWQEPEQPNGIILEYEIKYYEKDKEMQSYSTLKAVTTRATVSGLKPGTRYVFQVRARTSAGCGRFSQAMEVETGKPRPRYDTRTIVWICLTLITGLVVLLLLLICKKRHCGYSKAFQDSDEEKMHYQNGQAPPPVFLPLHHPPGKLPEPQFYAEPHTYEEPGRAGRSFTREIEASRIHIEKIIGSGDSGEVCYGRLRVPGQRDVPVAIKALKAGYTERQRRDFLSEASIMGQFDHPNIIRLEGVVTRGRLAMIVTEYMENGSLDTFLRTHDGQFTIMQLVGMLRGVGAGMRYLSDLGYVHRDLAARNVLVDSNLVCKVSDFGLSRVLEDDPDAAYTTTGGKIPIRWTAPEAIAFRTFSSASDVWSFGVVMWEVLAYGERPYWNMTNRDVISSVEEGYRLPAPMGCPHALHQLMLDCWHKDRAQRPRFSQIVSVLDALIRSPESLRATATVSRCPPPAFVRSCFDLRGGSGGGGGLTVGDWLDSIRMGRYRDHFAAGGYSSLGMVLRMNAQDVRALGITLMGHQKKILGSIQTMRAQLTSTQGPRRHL
The target in experiment [13] is Serine/threonine-protein kinase N1 (Homo sapiens) (UniProt Q16512). As to conditions: Compound concentration 1000.0 nM.
Serine/threonine-protein kinase N1 (Homo sapiens), sequence (Q16512 2-942 limits assumed): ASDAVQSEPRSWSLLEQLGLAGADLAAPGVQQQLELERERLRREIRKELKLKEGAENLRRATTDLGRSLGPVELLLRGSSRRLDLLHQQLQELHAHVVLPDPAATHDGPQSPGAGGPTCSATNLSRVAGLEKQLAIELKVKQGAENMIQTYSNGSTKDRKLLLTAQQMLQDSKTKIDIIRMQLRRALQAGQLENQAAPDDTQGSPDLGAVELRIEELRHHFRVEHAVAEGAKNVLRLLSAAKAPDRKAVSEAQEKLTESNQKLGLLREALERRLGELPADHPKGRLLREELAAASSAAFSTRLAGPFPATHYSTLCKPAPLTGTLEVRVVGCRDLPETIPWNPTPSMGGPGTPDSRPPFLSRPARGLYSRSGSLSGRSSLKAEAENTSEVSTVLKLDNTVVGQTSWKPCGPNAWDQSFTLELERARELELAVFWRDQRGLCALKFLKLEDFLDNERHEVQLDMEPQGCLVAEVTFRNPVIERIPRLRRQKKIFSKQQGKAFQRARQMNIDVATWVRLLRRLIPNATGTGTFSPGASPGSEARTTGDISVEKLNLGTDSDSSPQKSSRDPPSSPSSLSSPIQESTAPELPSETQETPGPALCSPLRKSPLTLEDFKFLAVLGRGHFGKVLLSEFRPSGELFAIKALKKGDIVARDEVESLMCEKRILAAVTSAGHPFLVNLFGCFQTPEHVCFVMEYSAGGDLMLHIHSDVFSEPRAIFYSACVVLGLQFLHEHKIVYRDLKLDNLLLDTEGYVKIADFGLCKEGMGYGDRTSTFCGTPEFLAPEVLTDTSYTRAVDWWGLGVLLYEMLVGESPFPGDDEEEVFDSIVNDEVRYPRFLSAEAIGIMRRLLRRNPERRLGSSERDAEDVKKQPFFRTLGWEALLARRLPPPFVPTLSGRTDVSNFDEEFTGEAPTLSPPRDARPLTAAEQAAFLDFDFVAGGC
In experiment [14] the target is Dual specificity mitogen-activated protein kinase kinase 1 (Homo sapiens) (UniProt Q02750). The note with it: Compound concentration 1000.0 nM.
Dual specificity mitogen-activated protein kinase kinase 1 (Homo sapiens), sequence (Q02750 whole entry): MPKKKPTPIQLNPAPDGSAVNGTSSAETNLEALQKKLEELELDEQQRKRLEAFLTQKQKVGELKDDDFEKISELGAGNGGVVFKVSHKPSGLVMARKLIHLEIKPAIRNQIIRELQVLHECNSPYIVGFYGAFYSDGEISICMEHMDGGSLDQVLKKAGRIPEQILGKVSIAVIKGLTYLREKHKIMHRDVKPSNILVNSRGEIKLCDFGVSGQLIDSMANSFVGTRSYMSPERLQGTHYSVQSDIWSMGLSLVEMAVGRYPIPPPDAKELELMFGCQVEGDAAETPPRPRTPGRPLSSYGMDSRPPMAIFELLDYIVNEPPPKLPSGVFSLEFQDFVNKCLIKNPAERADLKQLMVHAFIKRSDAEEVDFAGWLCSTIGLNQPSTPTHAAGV
The target in experiment [15] is Insulin-like growth factor 1 receptor (Homo sapiens) (UniProt P08069). As to conditions: Compound concentration 1000.0 nM.
The target in experiment [16] is Prostaglandin G/H synthase 1 (Homo sapiens) (UniProt P23219). The experiment in a line: COX1(h) CEREP ligand profiling. The note with it: Compound concentration 10.0 uM.
The target of experiment [17] is Cholecystokinin receptor type A (Homo sapiens) (UniProt P32238). Briefly: CCK1 (CCKA) (h) CEREP ligand profiling. As to conditions: filed as agonist, Compound concentration 10.0 uM.
Cholecystokinin receptor type A (Homo sapiens), sequence (P32238 whole entry): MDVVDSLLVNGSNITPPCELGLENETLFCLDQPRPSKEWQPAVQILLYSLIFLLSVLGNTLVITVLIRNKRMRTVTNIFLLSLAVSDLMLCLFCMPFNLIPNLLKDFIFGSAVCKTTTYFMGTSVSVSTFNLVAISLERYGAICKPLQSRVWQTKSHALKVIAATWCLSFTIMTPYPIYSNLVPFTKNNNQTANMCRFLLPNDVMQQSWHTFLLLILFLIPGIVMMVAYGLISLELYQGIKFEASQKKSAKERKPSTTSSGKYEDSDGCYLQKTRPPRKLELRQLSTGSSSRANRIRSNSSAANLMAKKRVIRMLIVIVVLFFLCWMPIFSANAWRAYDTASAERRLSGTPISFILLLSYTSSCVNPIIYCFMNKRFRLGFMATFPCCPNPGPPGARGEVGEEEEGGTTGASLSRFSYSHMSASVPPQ

Structures are written as SMILES.

Histone acetyltransferase KAT2B (Homo sapiens), sequence (Q92831 whole entry, looked up): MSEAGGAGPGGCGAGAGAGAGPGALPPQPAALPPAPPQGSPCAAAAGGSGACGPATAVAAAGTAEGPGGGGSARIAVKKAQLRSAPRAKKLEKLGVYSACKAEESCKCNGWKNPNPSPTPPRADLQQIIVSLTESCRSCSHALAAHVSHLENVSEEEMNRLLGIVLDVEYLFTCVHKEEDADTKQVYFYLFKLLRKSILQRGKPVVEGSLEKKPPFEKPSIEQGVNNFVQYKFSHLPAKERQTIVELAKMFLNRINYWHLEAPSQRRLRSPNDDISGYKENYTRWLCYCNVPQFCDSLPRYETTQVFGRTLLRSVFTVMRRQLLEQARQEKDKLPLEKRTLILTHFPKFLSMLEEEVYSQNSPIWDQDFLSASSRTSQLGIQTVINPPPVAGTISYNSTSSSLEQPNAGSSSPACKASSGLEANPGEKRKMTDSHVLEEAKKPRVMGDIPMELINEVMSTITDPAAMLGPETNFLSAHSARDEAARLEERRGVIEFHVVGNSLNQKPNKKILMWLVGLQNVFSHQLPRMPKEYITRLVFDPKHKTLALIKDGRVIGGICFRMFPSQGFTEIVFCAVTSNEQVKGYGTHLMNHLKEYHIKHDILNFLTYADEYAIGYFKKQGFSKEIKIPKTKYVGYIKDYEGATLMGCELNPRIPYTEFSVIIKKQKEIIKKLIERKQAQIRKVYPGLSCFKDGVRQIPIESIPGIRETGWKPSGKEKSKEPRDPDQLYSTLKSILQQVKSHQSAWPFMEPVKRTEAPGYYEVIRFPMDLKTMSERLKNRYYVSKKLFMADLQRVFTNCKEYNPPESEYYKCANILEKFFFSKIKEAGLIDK
Protein kinase C iota type (Homo sapiens), sequence (P41743 whole entry): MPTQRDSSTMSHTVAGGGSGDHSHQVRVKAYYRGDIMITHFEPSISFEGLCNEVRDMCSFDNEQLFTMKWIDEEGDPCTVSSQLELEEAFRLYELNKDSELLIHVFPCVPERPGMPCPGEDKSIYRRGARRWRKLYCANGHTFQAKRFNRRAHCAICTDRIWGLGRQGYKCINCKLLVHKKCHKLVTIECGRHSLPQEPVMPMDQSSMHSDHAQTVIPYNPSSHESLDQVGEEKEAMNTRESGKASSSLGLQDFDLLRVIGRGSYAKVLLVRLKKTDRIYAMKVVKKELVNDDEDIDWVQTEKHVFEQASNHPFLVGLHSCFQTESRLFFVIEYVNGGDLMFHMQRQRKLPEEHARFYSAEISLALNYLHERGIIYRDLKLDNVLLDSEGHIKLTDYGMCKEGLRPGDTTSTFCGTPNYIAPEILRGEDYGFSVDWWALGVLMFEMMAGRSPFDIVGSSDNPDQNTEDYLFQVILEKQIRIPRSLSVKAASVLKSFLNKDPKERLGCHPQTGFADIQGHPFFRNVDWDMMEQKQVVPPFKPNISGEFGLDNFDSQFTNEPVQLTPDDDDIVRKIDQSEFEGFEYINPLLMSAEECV

For the compound `CNC(=O)Nc1ccc2c(c1)CC[C@@]21OC(=O)N(CC(=O)N(Cc2ccc(F)cc2)[C@@H](C)C(F)(F)F)C1=O` [A-485], the “Cell Proliferation EC50” value in the experiment on OCI-Ly7 is 1.813 µM; in the experiment on BJAB, 0.2813 µM; in the experiment with SK-MEL-2, >10 µM; in the experiment with THP-1, 3.51 µM; in the experiment with NCI-H209, 0.4 µM; in the experiment with MDA-MB-231, >10 µM. In addition, the “Cell Proliferation EC50” value in the experiment on MeWo is 2.427 µM; in the experiment with HCC1187, >10 µM; in the experiment with NCI-H146, 0.4 µM; in the experiment on U-2973, 0.6622 µM; with Toledo, 0.4875 µM; with HCC1599 it was 4.8529 µM. For the same compound, the “Cell Proliferation EC50” value in the experiment with U-2940 amounted to 1.332 µM; in the experiment on MOLM-13, 0.35 µM; in the experiment on NCI-H929, 0.329 µM; in the experiment with Malme-3M it was 2.687 µM; with NCI-H522 it was 3.517 µM; with NCI-H838, 6.99 µM. Besides, the “Cell Proliferation EC50” value with OPM-2 was 0.62 µM; in the experiment on SU-DHL-2, 0.9538 µM; in the experiment on NCI-H1417 it was >10 µM; with HL-60, >10 µM; with SU-DHL10 it was 0.9169 µM; in the experiment on SU-DHL-6, 0.7457 µM. The “Cell Proliferation EC50” value in the experiment with RPMI-8226 was 0.164 µM; with HCC1395, >10 µM; in the experiment on COLO-679, 2.258 µM; with KARPAS-422 it was 0.2454 µM; with HCC1937, >10 µM; with NCI-H23 it was 1.791 µM. The inhibition was 0% in experiment [1]; 0% in experiment [2]; 7.83% in experiment [3]; 9% in [4]; 8% in [5]; 1% in experiment [6].
On to `CNC(=O)Nc1ccc2c(c1)[C@@]1(CC2)OC(=O)N(CC(=O)N(Cc2ccc(F)cc2)[C@@H](C)C(F)(F)F)C1=O` [A-486], for which the inhibition in [7] was 8%; in experiment [11], 0.04%; in experiment [16] it was -5%; in experiment [17] it was 1%. For the same compound, the residual activity is 100% in experiment [8]; 91% in [9]; 100% in [10]; 96% in experiment [12]; 98% in experiment [13]; 98% in experiment [14]. The residual activity in experiment [15] is 100%.

The record behind these values is ChEMBL document CHEMBL4507259 (2021).
